Molecules are shown by their SMILES. Counter-ions that a name gives are not always drawn.

The subject of experiment [1] is SMN2 mRNA. Kind of experiment: RT-qPCR splicing assay, SMN2 canonical junction (CJ) mRNA. The following applies: Homo sapiens; Table 5 panel; canonical junction qPCR; compound concentration having 50% response in CJ decrease; read-out: SMN2 IC50 (decrease in CJ mRNA levels). The class given is cell-based, human. Summed up:
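Canonical exon-exon junction transcript levels measured by one-step RT-qPCR of cell lysates, normalized to a housekeeping gene (GAPDH, GUSB or PPIA). Cells used were A673 or K562, exposed for 24 h to compound in 11-point, 3-fold series from 10 uM, with final DMSO at or below 0.25%.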

In experiment [2] the test system is K562 (human chronic myelogenous leukemia) cells. The experiment can be described thus: Cell Titer Glo 2.0 cell viability assay. The class given is cell-based. The following applies: Homo sapiens, K562, 72 h, K562 cells, 72 hours, Cell Titer Glo 2.0; read-out: K562 GI50.

In the case of `Cc1cn2nc(-c3ccc4c(=O)n(C5CCNCC5)ccc4c3)cc(Oc3cccc(F)c3)c2n1` [Compound 545, 6-[8-(3-fluorophenoxy)-2-methyl-imidazo[1,2-b]pyridazin-6-yl]-2-(4-piperidyl)isoquinolin-1-one; hydrochloride], the IC50 in experiment [1] is less than 100 nM. Further, the GI50 in experiment [2] was less than 100 nM.
For the compound `Cc1cn2nc(-c3ccc4c(=O)n(C5CCNCC5)ccc4c3)cc(Oc3ccc(F)cc3)c2n1` [Compound 546, 6-[8-(4-fluorophenoxy)-2-methyl-imidazo[1,2-b]pyridazin-6-yl]-2-(4-piperidyl) isoquinolin-1-one; hydrochloride], the IC50 in experiment [1] is less than 100 nM. The concentration for 50% growth inhibition (GI50) in experiment [2] is less than 100 nM.
Take `COc1cccc(Oc2cc(-c3ccc4c(=O)n(C5CCNCC5)ccc4c3)nn3cc(C)nc23)c1` [Compound 547, 6-[8-(3-methoxyphenoxy)-2-methyl-imidazo[1,2-b]pyridazin-6-yl]-2-(4 piperidyl) isoquinolin-1-one]: the half-inhibitory concentration (IC50) in experiment [1] is less than 100 nM. The GI50 in experiment [2] was less than 100 nM.
Take `Cc1cn2nc(-c3cc(F)c4c(=O)n(C5CCNCC5)ncc4c3)cc(Oc3ccccc3)c2n1` [Compound 548, 8-fluoro-6-(2-methyl-8-phenoxy-imidazo[1,2-b]pyridazin-6-yl)-2-(4-piperidyl)phthala-zin-1-one]: the IC50 in experiment [1] is less than 100 nM. In addition, the GI50 in experiment [2] is less than 100 nM.
In the case of `Cc1cn2nc(-c3ccc4c(=O)n(C5CCNCC5)ncc4c3)cc(Oc3ccccc3)c2n1` [Compound 549, 6-(2-methyl-8-phenoxy-imidazo[1,2-b]pyridazin-6-yl)-2-(4-piperidyl) phthalazin-1-one], the IC50 in experiment [1] is less than 100 nM. The GI50 in experiment [2] fell in the range of 100 to 1000 nM.
With `Cc1cn2nc(-c3ccc4c(=O)n(C5CCNCC5)ccc4c3)cc(Oc3cccnc3)c2n1` [Compound 550, 6-[2-methyl-8-(3-pyridyloxy)imidazo[1,2-b]pyridazin-6-yl]-2-(4-piperidyl)isoquinolin-1-one], the IC50 in experiment [1] is less than 100 nM. In experiment [2], the GI50 was less than 100 nM.
Regarding `Cc1cn2nc(-c3ccc4c(=O)n(C5CCNCC5)ccc4c3)cc(-n3ccc(=O)cc3)c2n1` [Compound 551, 6-[2-methyl-8-(4-oxo-1-pyridyl)imidazo[1,2-b]pyridazin-6-yl]-2-(4-piperidyl)isoquinolin-1-one], the IC50 in experiment [1] fell in the range of 100 to 1000 nM. Besides, in experiment [2], the GI50 lay in the range of 100 to 1000 nM.
Regarding `Cc1cn2nc(-c3ccc4c(=O)n(C5CCNCC5)ccc4c3)cc(-n3ccccc3=O)c2n1` [Compound 552, 6-[2-methyl-8-(2-oxo-1-pyridyl)imidazo[1,2-b]pyridazin-6-yl]-2-(4-piperidyl)isoquinolin-1-one], the IC50 in experiment [1] is greater than 10000 nM. For the same compound, the GI50 in experiment [2] is greater than 10000 nM.
Consider `Cc1cn2nc(-c3cc(O)c4c(=O)n(C5CCN(CCF)CC5)ncc4c3)cc(C)c2n1` [Compound 553], for which the IC50 in experiment [1] was less than 100 nM. Moreover, the GI50 in experiment [2] fell in the range of 100 to 1000 nM.
`Cc1cc(-c2cc(F)c3c(=O)n(C4CCNC5(CC5)C4)ncc3c2)cc2cn(C)nc12` (centres unmarked) [Compound 554]: the IC50 in experiment [1] was less than 100 nM. The GI50 in experiment [2] fell in the range of 100 to 1000 nM.
As for `Cc1nc2c(C)cc(-c3cc(F)c4c(=O)n(C5CCNC6(CC6)C5)ncc4c3)cc2o1` (centres unmarked) [Compound 555], the IC50 in experiment [1] was less than 100 nM. Besides, the GI50 in experiment [2] fell in the range of 100 to 1000 nM.
On to `Cc1cn2cc(-c3cc(F)c4c(=O)n(C5CCNC6(CC6)C5)ncc4c3)cc(Cl)c2n1` (centres unmarked) [Compound 556], for which the IC50 in experiment [1] is less than 100 nM. Also, the GI50 in experiment [2] was 100 to 1000 nM.
As for `Cc1cn2cc(-c3cc(O)c4c(=O)n(C5CCNC6(CC6)C5)ncc4c3)cc(Cl)c2n1` (centres unmarked) [Compound 557], in experiment [1], the IC50 is less than 100 nM. Besides, the GI50 in experiment [2] lay in the range of 100 to 1000 nM.
Consider `CCc1cn(C2CCNCC2)c(=O)c2c(F)cc(-c3cc(F)c4nc(C)cn4c3)cc12` [Compound 558, 4-ethyl-8-fluoro-6-{8-fluoro-2-methylimidazo[1,2-a]pyridin-6-yl}-2-(piperidin-4-yl)isoquinolin-1-one], for which, in experiment [1], the IC50 was less than 100 nM. For the same compound, the GI50 in experiment [2] was in the range of 100 to 1000 nM.
In the case of `C=Cc1cn(C2CCNCC2)c(=O)c2c(F)cc(-c3cc(F)c4nc(C)cn4c3)cc12` [Compound 559, 4-ethenyl-8-fluoro-6-{8-fluoro-2-methylimidazo[1,2-a]pyridin-6-yl}-2-(piperidin-4-yl)isoquinolin-1-one], the IC50 in experiment [1] was less than 100 nM. Moreover, the GI50 in experiment [2] is less than 100 nM.
As to `Cc1cn2cc(-c3ccc4c(=O)n(C5CCNCC5)ccc4c3)cc(C#N)c2n1` [Compound 560, 2-methyl-6-[1-oxo-2-(piperidin-4-yl)isoquinolin-6-yl]imidazo[1,2-a]pyridine-8-carbonitrile], the IC50 in experiment [1] was less than 100 nM. Moreover, the concentration for 50% growth inhibition (GI50) in experiment [2] fell in the range of 100 to 1000 nM.
As for `Cc1cc(-c2cc(O)c3c(=O)n(C4CCNC5(CC5)C4)ncc3c2)cc2cn(C)nc12` (centres unmarked) [Compound 561], in experiment [1], the half-inhibitory concentration (IC50) lay within 100 to 1000 nM. The 50% growth inhibitory concentration (GI50) in experiment [2] fell in the range of 1000 to 10000 nM.
For `Cc1cn2nc(-c3cc4ncn(C5CCNCC5)c(=O)c4cc3F)cc(C)c2n1` [Compound 585, 7-{2,8-dimethylimidazo[1,2-b]pyridazin-6-yl}-6-fluoro-3-(piperidin-4-yl)quinazolin-4-one], in experiment [1], the IC50 fell in the range of 100 to 1000 nM. Besides, the GI50 in experiment [2] fell in the range of 1000 to 10000 nM.
`Cc1cn2cc(-c3cc4ncn(C5CCNCC5)c(=O)c4cc3F)cc(F)c2n1` [Compound 586, 6-fluoro-7-{8-fluoro-2-methylimidazo[1,2-a]pyridin-6-yl}-3-(piperidin-4-yl)quinazolin-4-one]: the IC50 in experiment [1] is less than 100 nM. Also, in experiment [2], the 50% growth inhibitory concentration (GI50) lay within 100 to 1000 nM.
Turning to `Cc1cn2cc(-c3cc(O)c4c(=O)n(C5CCNCC5)cnc4c3)cc(F)c2n1` [Compound 587, 7-{8-fluoro-2-methylimidazo[1,2-a]pyridin-6-yl}-5-hydroxy-3-(piperidin-4-yl)quinazolin-4-one], the IC50 in experiment [1] was less than 100 nM. Further, the GI50 in experiment [2] lay in the range of 100 to 1000 nM.
On the same counts, the results for `Cc1cn2cc(-c3cc(F)c4c(=O)n(C5CCNCC5)cnc4c3)cc(C#N)c2n1` [Compound 588] are less than 100 nM and 1000 to 10000 nM.
On the same counts, the results for `Cc1cn2nc(-c3cc(F)c4c(=O)n(C5CCNC5)cnc4c3)cc(C)c2n1` (centres unmarked) [Compound 589, 7-{2,8-dimethylimidazo[1,2-b]pyridazin-6-yl}-5-fluoro-3-(pyrrolidin-3-yl)quinazolin-4-one] are 100 to 1000 nM and 1000 to 10000 nM.
For `Cc1cn2nc(-c3cc(F)c4c(=O)n([C@@H]5CCN(C)C6(CC6)C5)ncc4c3)cc(C)c2n1` [Compound 637] the same measures were less than 100 nM and 100 to 1000 nM.
With `Cc1cn2nc(-c3cc(F)c4c(=O)n([C@H]5CCN(C)C6(CC6)C5)ncc4c3)cc(C)c2n1` [Compound 638], the IC50 in experiment [1] is less than 100 nM. Besides, the GI50 in experiment [2] is 100 to 1000 nM.
On to `Cc1cn2nc(-c3cc4ccn([C@@H]5CCNC5)c(=O)c4cc3O)cc(C)c2n1` [Compound 640, 6-(2,8-dimethylimidazo[1,2-b]pyridazin-6-yl)-7-hydroxy-2-[(3R)-pyrrolidin-3-yl]isoquinolin-1-one], for which, in experiment [1], the IC50 was less than 100 nM. Besides, in experiment [2], the GI50 fell in the range of 100 to 1000 nM.
Take `Cc1cn2nc(-c3cc4ccn([C@H]5CCNC5)c(=O)c4cc3O)cc(C)c2n1` [Compound 641, 6-(2,8-dimethylimidazo[1,2-b]pyridazin-6-yl)-7-hydroxy-2-[(3S)-pyrrolidin-3-yl]isoquinolin-1-one]: the IC50 in experiment [1] was less than 100 nM. For the same compound, the GI50 in experiment [2] is 100 to 1000 nM.
As for `Cc1cn2cc(-c3cc(F)c4c(=O)n([C@@H]5C[C@@H](C)N[C@@H](C)C5)ccc4c3)cc(F)c2n1` [Compound 642, 2-[(2S,6R)-2,6-dimethyl-4-piperidyl]-8-fluoro-6-(8-fluoro-2-methyl-imidazo[1,2-a]pyridin-6-yl)isoquinolin-1-one], in experiment [1], the IC50 was less than 100 nM. For the same compound, the GI50 in experiment [2] lay within 1000 to 10000 nM.
On to `Cc1cn2cc(-c3cc(F)c4c(=O)n([C@H]5CNC[C@@H]5F)ccc4c3)cc(F)c2n1` [Compound 644], for which the IC50 in experiment [1] lay in the range of 100 to 1000 nM. The GI50 in experiment [2] was in the range of 1000 to 10000 nM.
Regarding `Cc1cn2nc(-c3cc(N)c4c(=O)n([C@H]5CCNC5)ccc4c3)cc(C)c2n1` [Compound 645, 8-amino-6-(2,8-dimethylimidazo[1,2-b]pyridazin-6-yl)-2-[(3S)-pyrrolidin-3-yl]isoquinolin-1-one], the half-maximal inhibitory concentration (IC50) in experiment [1] was in the range of 100 to 1000 nM. Further, the GI50 in experiment [2] was 1000 to 10000 nM.
For `Cc1cn2nc(-c3cc(N)c4c(=O)n([C@@H]5CCNC5)ccc4c3)cc(C)c2n1` [Compound 646, 8-amino-6-(2,8-dimethylimidazo[1,2-b]pyridazin-6-yl)-2-[(3R)-pyrrolidin-3-yl]isoquinolin-1-one], in experiment [1], the IC50 was 100 to 1000 nM. Besides, the GI50 in experiment [2] is 1000 to 10000 nM.
On the same counts, the results for `CNc1cc(-c2cc(C)c3nc(C)cn3n2)cc2ccn([C@H]3CCNC3)c(=O)c12` [Compound 647, 6-(2,8-dimethylimidazo[1,2-b]pyridazin-6-yl)-8-(methylamino)-2-[(3S)-pyrrolidin-3-yl]isoquinolin-1-one] are 100 to 1000 nM and 1000 to 10000 nM.
For `CNc1cc(-c2cc(C)c3nc(C)cn3n2)cc2ccn([C@@H]3CCNC3)c(=O)c12` [Compound 648, 6-(2,8-dimethylimidazo[1,2-b]pyridazin-6-yl)-8-(methylamino)-2-[(3R)-pyrrolidin-3-yl]isoquinolin-1-one] the same measures were 100 to 1000 nM and 1000 to 10000 nM.
For `CC(=O)Nc1cc(-c2cc(C)c3nc(C)cn3n2)cc2ccn([C@H]3CCNC3)c(=O)c12` [Compound 649, N-[6-(2,8-dimethylimidazo[1,2-b]pyridazin-6-yl)-1-oxo-2-[(3S)-pyrrolidin-3-yl]-8-isoquinolyl]acetamide], in experiment [1], the IC50 is 100 to 1000 nM. Further, the GI50 in experiment [2] lay in the range of 1000 to 10000 nM.
For `CC(=O)Nc1cc(-c2cc(C)c3nc(C)cn3n2)cc2ccn([C@@H]3CCNC3)c(=O)c12` [Compound 650, N-[6-(2,8-dimethylimidazo[1,2-b]pyridazin-6-yl)-1-oxo-2-[(3R)-pyrrolidin-3-yl]-8-isoquinolyl]acetamide], the IC50 in experiment [1] lay within 1000 to 10000 nM. Further, in experiment [2], the GI50 was in the range of 1000 to 10000 nM.
